Results published in paper PMC11239005, “Preclinical studies of RA475, a guanidine-substituted spirocyclic candidate RPN13/ADRM1 inhibitor for treatment of ovarian cancer” (PLOS ONE, 2024).

Experiments:
RPN13 = molecular target: T1, RPN13 (Homo sapiens, UniProt Q16186); assay: Up284B competition labelling in ES2 and SKOV3 cell lysate; type: binding; conditions: titrated RA475, bortezomib 1 μM, Up284B 5 μM
T1 construct: performed the labeling assay after treating ovarian cancer cell lysates (ES2 and SKOV3) in the presence of titrated doses of RA475; endogenous in cells; host or cells: ES2 and SKOV3 ovarian cancer cell lysates
T1 sequence (Q16186 whole entry): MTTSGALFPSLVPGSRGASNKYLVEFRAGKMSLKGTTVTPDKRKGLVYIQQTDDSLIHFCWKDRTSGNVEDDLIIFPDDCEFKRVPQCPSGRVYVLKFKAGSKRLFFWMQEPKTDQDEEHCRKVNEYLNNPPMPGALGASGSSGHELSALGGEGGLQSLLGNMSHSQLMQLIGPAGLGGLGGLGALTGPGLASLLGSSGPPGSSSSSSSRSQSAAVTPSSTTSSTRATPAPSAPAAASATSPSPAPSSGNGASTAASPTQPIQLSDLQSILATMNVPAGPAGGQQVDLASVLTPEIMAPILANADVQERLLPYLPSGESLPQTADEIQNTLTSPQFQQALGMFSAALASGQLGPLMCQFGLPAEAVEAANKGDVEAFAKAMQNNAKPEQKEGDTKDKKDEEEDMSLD
Experimental: Clarified cell lysate in MPER buffer (Pierce) was pretreated with streptavidin-coated magnetic beads for 45 min at 4°C to deplete non-specific biotinylated proteins in the cell lysate. […] Next, the samples were mixed with Laemmli sample buffer (BioRad) and boiled for 5 min. The proteins were separated using a 4–15% Bio-Rad Mini-PROTEAN SDS-PAGE gel (1 h at 100 V), and transferred to PVDF membrane overnight at 4°C (24 V). The membrane was blocked with 5% (w/v) BSA in phosphate buffered saline containing 0.1% (v/v) Tween 20 (PBST) for 1 h at RT, and washed for 20 min (3X with PBST). Then the membrane was probed with HRP-streptavidin (1:10,000 in PBST) for 1 h at RT, washed for 30 min (3X with PBST), and developed using HyGLO chemiluminescent detection reagent (Denville) and visualized using a Biorad Chemidoc imager.
Fig 2 RA475 binds to RPN13 and induces rapid apoptosis. […] C, D) RA475 competition labelling experiment. C) ES2 D) SKOV3 clarified cell lysate (40 μg/sample) in MPER buffer was pretreated with streptavidin-coated magnetic beads for 45 min at 4°C to deplete non-specific biotinylated proteins in the cell lysate. […] Next, the samples were mixed with Laemmli sample buffer (BioRad) and boiled for 5 min. The proteins were separated using a 4–15% Bio-Rad Mini-PROTEAN SDS-PAGE gel (1 h at 100 V), and transferred to PVDF membrane overnight at 4°C (24 V). […]

[1] = molecular target: human serum albumin protein (Homo sapiens, UniProt P02768); assay: Human serum albumin protein binding; type: in vitro ADME; conditions: 1 μM, dialysis 5 h
Sequence of human serum albumin protein (P02768 25-609): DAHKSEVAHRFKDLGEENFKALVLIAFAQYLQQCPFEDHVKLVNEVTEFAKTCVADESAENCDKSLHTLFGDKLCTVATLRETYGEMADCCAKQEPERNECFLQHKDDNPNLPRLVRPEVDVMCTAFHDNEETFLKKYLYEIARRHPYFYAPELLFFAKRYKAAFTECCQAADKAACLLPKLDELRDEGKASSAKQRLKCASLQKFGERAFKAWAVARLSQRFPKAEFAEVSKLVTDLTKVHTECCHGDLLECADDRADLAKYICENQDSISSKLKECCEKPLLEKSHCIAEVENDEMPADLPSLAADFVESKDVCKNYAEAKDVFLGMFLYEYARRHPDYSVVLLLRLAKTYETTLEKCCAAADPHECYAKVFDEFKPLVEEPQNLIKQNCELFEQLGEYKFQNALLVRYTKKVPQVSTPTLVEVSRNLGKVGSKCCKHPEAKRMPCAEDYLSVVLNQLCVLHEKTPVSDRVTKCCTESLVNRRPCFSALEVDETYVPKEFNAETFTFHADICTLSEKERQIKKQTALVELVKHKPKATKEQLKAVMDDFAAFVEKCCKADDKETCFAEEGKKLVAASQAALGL
Experimental: The assay was performed in a multiple-use 96-well dialysis unit (HTD96b dialyzer). Each individual well unit consisted of 2 chambers separated by a vertically aligned dialysis membrane of predetermined pore size (MWCO 12–14 kDa). 120 μL of non-diluted plasma spiked with the compound (1 μM, final DMSO concentration 1%) was added to one chamber, and the same volume of PBS buffer pH 7.4 to the other chamber. The HTD96b dialyzer was covered with adhesive sealing film and incubated 5 h at 37°C while shaking at 100 rpm. For sample preparation, an aliquot of the contents of each chamber was mixed with the same volume of the blank opposite matrix. In order to define non-specific loss of the compound during this assay, a standard solution was created by mixing an aliquot of spiked plasma with blank buffer without dialysis. Two aliquots of the standard solution were incubated at 37°C, shaking at 100 rpm for 5 h (recovery samples). The other two aliquots were immediately diluted with acetonitrile and stored at 4°C until analysis (stability samples). All samples were diluted 5-fold with internal standard diluted in 100% methanol with subsequent plasma proteins sedimentation by centrifuging at 6000 rpm for 5 minutes. Supernatants were analyzed using LC-MS/MS. The percentage of plasma protein bound compound, recovery and stability were calculated using following equations. […]

[2] = set-up: method as in PMID 37315065; conditions: mice; cited from earlier work

| SMILES | competition with Up284B for binding to RPN13 (RPN13) | binding to human serum albumin protein [1] | IP bioavailability [2] | oral bioavailability [2] |
| --- | --- | --- | --- | --- |
| Cl.Cl.N#Cc1ccc(/C=C2/C(=O)/C(=C/c3ccc(C#N)cc3)C23CCN(C(=N)N)CC3)cc1 [RA475, 1,3-bis((E)-4-cyanobenzylidene)-2-oxo-7-azaspiro[3.5]nonane-7-carboximidamide dihydrochloride] | efficiently competes | 93.8% |  |  |
| N#Cc1ccc(/C=C2/C(=O)/C(=C/c3ccc(C#N)cc3)C23CCNCC3)cc1 [Up284, reference compound] |  |  | 87% | 23% |
